Measurements taken from article PMC10179701, “Towards Protection of Nucleic Acids from Herbicide Attack: Self-Assembly of Betaines Based on Pillar[5]arene with Glyphosate and DNA” (International Journal of Molecular Sciences, 2023).
Marks after values point to notes of the source that are not given here.

Tests used:
[1] = test system: A549 cells; assay: MTT test, A549 cells
Experimental: The next stage of this work was the study of pillar[5]arenes 1–4 ability to inhibit the viability and proliferative activity of embryonic lung epithelial (LEC) and human lung adenocarcinoma (A549) cells using the MTT test.
Further, the ability of GIS to inhibit the viability and proliferative activity of LEC and A549 cells was studied by the MTT test. […] The average inhibitory concentration (IC50) was calculated for GIS (Table 3). […]
1.6. Cytotoxicity of pillar[5]arenes 1–4, GIS and their mixtures on A549 and LEC Cell Lines […]
activity of LEC cells and A549 cells was investigated using the MTT test according to [2]. A549 – human alveolar adenocarcinoma cell line (ATCC, Rockville, Maryland, USA) and cow embryo lung epithelial (LEC) cells (Animal Cell Culture Collection of Russian Academy of Agricultural Science, Kazan, Russia) were cultured in DMEM (GIBCO, Waltham, MA, USA) medium supplemented with 10% serum and 100 units/mL of penicillin (PanEco, Moscow, Russia) and streptomycin (PanEco, Moscow, Russia) in a humidified atmosphere with 5% CO2 at 37 °C. Cells were seeded in 96‐well plates at a concentration of 10^4 cells/well. After 24 h of cultivation, the medium was removed from the wells and replaced with a fresh one with the addition of the test substances. The volume of the culture medium in the wells was 100
μL. After 24 h incubation of cells in the presence of substances, the medium in the wells was replaced with a fresh one containing MTT reagent at a final concentration of 0.5 mg/mL. The cells were incubated with MTT for 4 h at 37 °C in an atmosphere of 5% CO2. Then, the medium was aspirated from the wells and 100 μL of dimethyl sulfoxide was added. Probes were incubated at 37 °C for 15 min in the dark for the formazan crystals to dissolve. The optical density of the formazan solution in the wells was measured using a plate reader (BioRad xMarkTM Microplate Spectrophotometer, USA) at a wavelength of 570 nm.
Three series of experiments were carried out with at least 8 replications for each variant in the series. […]

[2] = Dynamic light scattering of macrocycle aggregates in water; format: physicochemical; conditions: H2O, 298 K
Experimental: The next stage of the work was the study of aggregation properties of both previously synthesized ester derivatives of amino acids 1 and 2, and macrocyclic betaine derivatives 3 and 4 by dynamic light scattering (DLS). The study was carried out in water in the 1 × 10^–6–1 × 10^–4 M concentration range (Figures S11–S22). The size of associates increases with decreasing macrocycle 1 concentration in solution (Table 1). A different pattern is observed for betaine derivative 3. Thus, the particles become coarser, and the polydispersity index (PDI) of the systems increased with an increase in compound 3 concentration, which is probably due to the formation of β-sheets by oligopeptide substituents. The presence of two oppositely charged fragments in one substituent leads to the fact that compound 3 becomes similar to surfactant molecules in terms of its aggregation properties.

[3] = test system: A549 cells; assay: MTT assay, combined action of macrocycles with GIS on A549 cells; format: cell-based, human; conditions: A549, pillararene 1 × 10^–5 M with GIS 3.47 × 10^–2 M
Experimental: The ability to inhibit the viability and proliferative activity of A549 cells of macrocycles 1–4 in the presence of GIS was studied using the MTT assay. […] The developed approach opens up the possibility of creating pillar[5]arene-based herbicide antidotes. […]
fresh one with the addition of the test substances.
Then, the medium was aspirated from the wells
and 100 μL of dimethyl sulfoxide was added.
the formazan crystals to dissolve. […]
substances. […] After 24 h of incubation cells were […]

C[N+](C)(CCCNC(=O)COc1cc2c(OCC(=O)NCCC[N+](C)(C)CC(=O)N[C@@H](Cc3ccccc3)C(=O)[O-])cc1Cc1cc(OCC(=O)NCCC[N+](C)(C)CC(=O)N[C@@H](Cc3ccccc3)C(=O)[O-])c(cc1OCC(=O)NCCC[N+](C)(C)CC(=O)N[C@@H](Cc1ccccc1)C(=O)[O-])Cc1cc(OCC(=O)NCCC[N+](C)(C)CC(=O)N[C@@H](Cc3ccccc3)C(=O)[O-])c(cc1OCC(=O)NCCC[N+](C)(C)CC(=O)N[C@@H](Cc1ccccc1)C(=O)[O-])Cc1cc(OCC(=O)NCCC[N+](C)(C)CC(=O)N[C@@H](Cc3ccccc3)C(=O)[O-])c(cc1OCC(=O)NCCC[N+](C)(C)CC(=O)N[C@@H](Cc1ccccc1)C(=O)[O-])Cc1cc(OCC(=O)NCCC[N+](C)(C)CC(=O)N[C@@H](Cc3ccccc3)C(=O)[O-])c(cc1OCC(=O)NCCC[N+](C)(C)CC(=O)N[C@@H](Cc1ccccc1)C(=O)[O-])C2)CC(=O)N[C@@H](Cc1ccccc1)C(=O)[O-] [Compound 4, 4,8,14,18,23,26,28,31,32,35-Decakis-[(N-[3’-dimethyl({oxidocarbonyl[S-benzyl]methyl}aminocarbonylmethyl)ammonio]propyl)aminocarbonylmethoxy]-pillar[5]arene]
IC50 ([1]; A549, MTT, 24 h): >100 * μg/mL | cytotoxic activity ([1]; A549, concentration range 2–100 μg/mL): did not show statistically significant cytotoxic activity | polydispersity index (PDI) ([2]; 1 × 10^–4 M): 0.36 | size of aggregates d ([2]; 1 × 10^–4 M): 127 ± 16 nm | polydispersity index (PDI) ([2]; 1 × 10^–5 M): 0.41 | size of aggregates d ([2]; 1 × 10^–5 M): 218 ± 10 nm | polydispersity index (PDI) ([2]; 1 × 10^–6 M): 0.42 | size of aggregates d ([2]; 1 × 10^–6 M): 457 ± 65 nm | change of toxicity on combined action with GIS [3]: No significant differences
